Source: patent publication US20040033982A1, “Viral inhibition by n-docosanol” (priority 2001, published 2004)
“Also recorded” adds a separate entry of the source.

What was measured:
HSV [1] = experiment: Direct viricidal activity (virus mixed with suspension, infectivity recovered)
Method: Extensive studies designed to delineate the mechanism by which n-docosanol exerts its antiviral activity were conducted. The collective implications of the results of the studies are that the compound appears to interfere with one or more of the common pathways of viral entry into the cell and migration to the nucleus of infected target cells.
Instead, the drug apparently modifies the target cell in a manner that inhibits viral replication.

HSV-1 or HSV-2 = experiment: Inhibition of HSV production and plaque formation in Vero cells; type: cell-based
Method: Cultured cells were placed in 35-mm wells (2 ml; 3×10^5 cells/ml) in DMEM containing L-glucamine, pennstrep (cDMEM) and supplemented with 5% FCS. n-Docosanol or the corresponding control vehicle (lacking n-docosanol) was added at the outset of the culture. All cultures were then inoculated with 175 p.f.u. of HSV-1 or HSV-2.
The cultures were incubated for an additional 42-44 h, washed once with fresh medium, stained and fixed (the staining/fixative consists of 1.25 mg/ml of carbol-fuchsin plus 2.5 mg/ml of methylene blue in methanol) and then scored for HSV-induced plaques using a dissecting microscope (10× magnification). Thc data are averages of duplicate cultures, which varied by no more than 5-10%.

Friend virus = Friend virus induced leukemia and viremia in mice; type: in vivo, BALB/c mice; conditions: intravenous, day of virus and once daily for the next 3 days
Method: FIG. 12 depicts data showing that n-docosanol inhibits in vivo Friend virus induced leukemia and viremia. Adult BALB/c mice were injected intravenously with 75 spleen focus-forming units of FV. Treated groups were injected intravenously with the indicated doses of n-docosanol or Pluronic vehicle alone on the same day as virus inoculation and once daily for the next 3 days. After 10 days, half of the animals in each group were sacrificed and examined for leukemic foci in their spleens (panel A). The remaining mice were retained 10 more days and bled for viremia determinations (panel B). Viremia was measured using the X-C plaque assay. Briefly, primary fibroblast cultures were derived by digestion of 14-day BALB/c embryos with trypsin and culturing in DMEM plus 10% fetal calf serum. After 72 hours, the cells were transferred into 16-mm dishes (10^5/well), pretreated with 5 μg/ml polybrene and then infected with 75 X-C plaque-forming units of Friend virus stock or dilution of test plasma. After incubation for 7 days, the cultures were irradiated and overlaid with X-C cells (3×10^5/well). Three days later, the cultures were washed, stained, and scored for plaques of multinucleated giant cells. The data presented are geometric means and standard errors of splenic foci or X-C plaque-forming units derived from three animals per group. […]

HSV [2] = experiment: Inhibition of HSV replication, Tetronic versus Pluronic suspension; type: cell-based
Source text: An initial step in conducting such studies involved switching to a different surfactant or suspending n-docosanol. Tetronic 908 is closely related to Pluronic F68; both are block copolymers of ethylene oxide and propylene oxide. However, whereas Pluronic is a bifunctionaI polymer with a molecular weight of 8,400, Tetronic 908 is a tetrfunctional copolymer, produced by adding propylene oxide and ethylene oxide to ethylenediamine and resulting in a molecule with an average molecular weight of 25,000. […] This appears to relate to the 3-fold higher levels of metabolic conversion in cells treated with n-docosanol in Tetronic.

HIV-1 = HIV-1 replication in PHA/IL-2-stimulated peripheral blood mononuclear cells (p24 ELISA); type: cell-based, human; conditions: 4 days after inoculation
Method: FIG. 13 depicts data showing that n-docosanol inhibits in vitro replication of HIV-1 in cultures of PHA/IL-2-stimulated human peripheral blood mononuclear cells. Human peripheral blood mononuclear cells were cultured in medium containing 1 μg/ml PHA plus 5 units/ml IL-2 alone or also containing 100 μg/ml PFA, the indicated dosage of n-docosanol/Pluronic F68, or the amount of Pluronic F-68 control vehicle contained in the high dose of n-docosanol/Pluronic F-68. After overnight incubation, the cultures were inoculated with HIV-1 at a multiplicity of infection of 1 virion/cell. After 24 hours incubation at 37° C., the cultures were washed and inoculated with fresh medium containing PHA and IL-2, but lacking inhibitor. Replication of HIV-1 was determined 4 days later by quantitation of viral antigens by a p24-specific ELISA for HIV-1.
The initial studies on HIV were conducted in collaboration with a U.S. National Institutes of Health Laboratory and one of several experiments of this type is summarized in FIG. 13. Normal human peripheral blood mononuclear cells were activated with 1 μg/ml PHA plus 5 units/ml of IL-2 in medium alone or in the presence of n-docosanol, Pluronic […] control vehicle, or phosphonformic acid (PFA). The next day, the cultures were inoculated with HIV-1 and examined 4 days later for evidence of viral replication by detection of the p24 viral antigen.

HSV-2 = HSV-2 internalization into Vero cells (citrate buffer wash); type: cell-based
Method: FIG. 9 depicts data showing that HSV-2 remains on the surface of n-docosanol treated Vero cells for prolonged times. Vero cells were cultured as described in the legend to FIG. 7 and incubated overnight. The cultures were then chilled to 4° C., inoculated with 100 PFU of HSV-2, and incubated 3 hours at 4° C. At time zero the cultures were washed with medium, inoculated with fresh medium (containing the indicated inhibitor) and incubated at 37° C. At each indicated time period, the cultures were washed with citrate buffer (pH 2.5) and reinoculated with fresh medium (lacking inhibitor). After a total of 44 hours incubation the cultures were stained and scored for HSV-2-induced plaques. The data are expressed as geometric means and standard errors derived from triplicate cultures per group.
In this experiment, HSV-2 was incubated with Vero cells in the absence or presence of n-docosanol at 4° C. to allow for receptor binding of the virus. At the end of 3 hours, all cultures were washed and then replated at 37° C. in order to initiate the viral entry process. At 20 minute intervals thereafter, the various cultures were exposed to pH 3.0 citrate buffer, conditions which remove and inactivate surface-bound, but not internalized, HSV virions, and then re-cultured the full 44 hour period required to develop optimal HSV plaques.

CCCCCCCCCCCCCCCCCCCCCCO [n-docosanol]
direct viricidal activity (HSV [1]): no direct viricidal activity; also recorded: does not directly inactivate virus
ID50 for inhibition of HSV production (HSV-1 or HSV-2): 4 mM
ID50 for inhibition of plaque formation (HSV-1 or HSV-2): 9 mM
development of leukemic foci in spleens (Friend virus; day 10): very clear dose-related inhibitory affect
development of viremia (Friend virus; day 20): very clear dose-related inhibitory affect
ED50 for inhibition of HSV replication relative to Tetronic (HSV [2]; suspended in Pluronic): approximately 3 times higher
ED50 for inhibition of HSV replication (HSV [2]; suspended in Tetronic): 5 to 10 mM
inhibitory activity against HIV-1 (p24 viral antigen) (HIV-1): dose-related inhibitory activity; also recorded: comparable to that observed with the very potent antiviral compound, phosphonoformic acid (PFA)
time for internalization to reach completion (HSV-2): more than 1 hour
internalization of HSV complete (HSV-2; 20 minutes after the shift to 37° C.): less than 40%
